This is an account of results in US20140080810A1 (Exelixis, Inc., priority 2010, published 2014).

The test system of the assay is pAKT (T308) in MCF-7 cells (PI3Kα E545K). Put plainly: pAKT (T308) ELISA Assay. In kind it is cell-based. To be noted: Homo sapiens, MCF7. Here is the method: MCF-7 cells (ATCC) cells were seeded at 24000 cells per well in 96-well plates (Corning, 3904) in DMEM (Cellgro) containing 10% FBS (Cellgro), 1% NEAA (Cellgro) and 1% penicillin-streptomycin (Cellgro). Cells were incubated at 37° C., 5% CO2 for 48 h, and the growth medium was replaced with serum-free DMEM or in medium containing 0.4% BSA. Serial dilutions of the test Compound in 0.3% DMSO (vehicle) were added to the cells and incubated for 3 h. At the end of the incubation period, cells were stimulated for 10 minutes by the addition of L-IGF (Sigma, I-1271) at a final concentration of 100 ng/ml. Afterwards, media was discarded from cell plates and 110 μl/well of cold lysis buffer (see table below) were added. Cell plates were incubated on ice and then put on shaker in 4° C. cold room for 1 h. Two capture plates (Thermo Scientific, Reacti-bind plate, 15042) were prepared for each cell plate by pre-coating with capture Akt antibody from the two sandwich ELISA antibody pairs used (Cell Signaling Technology 7142 and 7144). The Akt capture antibodies were diluted 1:100 in PBS and 100 μl of diluted capture antibody was added per well. Capture plates were incubated at 4 C overnight. Prior to use, capture plates were washed 3 times in TBS containing 0.1% Tween20 (Bio-Rad, 170-6351) (TBST) and blocked in blocking buffer (Thermo Scientific, Starting Block T20, 37543) for 1-2 h at room temperature. After 1 h of cell lysis, 85 μl of cell lysate/well was transferred to the capture plate for detection of pAkt(T308). 15 μl of cell lysate was transferred from same well to the second capture plate for detection of total Akt1. After incubation overnight at 4° C., plates were washed 3 times with 200 μL TBST. Primary antibodies, diluted 1:100 in blocking buffer, were added to the corresponding capture plates for pAkt(T308) (Cell Signaling Technology, 7144) and total Akt1 (Cell Signaling Technology, 7142) detection and incubated at room temperature for 1 h. Plates were washed 3 times with 200 μL of TBST. Goat anti-mouse secondary antibody (Cell Signaling Technology, 7076) conjugated to HRP was diluted 1:1000 in blocking buffer and 100 μl were added to each well and incubated for 30 minutes at room temperature. Plates were then washed 3 times with 200 μL of TBST. 100 μL of SuperSignal ELISA Femto stable peroxidase solution (Thermo Scientific, 37075) was added to each well. After 1 minute incubation, chemiluminescence was read on a Wallac Victor2 1420 multilabel counter. IC50 values were determined based on the ratio of pAkt(T308) to total Akt1 signal for Compound treated wells, normalized to the DMSO-treated control wells.
In another embodiment, the pAKT ELISA Assay was performed by seeding cells onto 96-well plates (Corning, 3904) in their respective growth media at the densities listed in Table 5. Cells were incubated at 37° C., 5% CO2 for 48 h (except MDA-MB-453 cells which were cultured in the absence of CO2). Compounds were serially diluted in DMSO and subsequently diluted in serum-free DMEM. Test compounds were added to cells in serum-free DMEM at a final concentration of 0.3% DMSO and incubated for 3 h. Cells were lysed with 130 μL of ice-cold RIPA lysis buffer (50 mM Tris-HCl, pH 7.5; 0.5% sodium deoxycholic acid; 1% Triton X-100; 0.1% SDS; 150 mM NaCl) with protease and phosphatase inhibitors (1 mM EDTA, 1 mM NaF, 20 mM β-glycerophosphate, 1 mM Na-orthovanadate, Complete-Mini EDTA-free, Roche, 11836170001, and Phosphatase Inhibitor Cocktail I, Sigma, P2850), directly in 96-well plates. Cells were lysed on ice for 60-120 min at 4° C. The supernatants were added directly to capture ELISA plates previously pre-coated with rabbit anti-AKT capture antibody. ELISA assays for pAKT(T308) and total AKT were performed with the pAKT(T308) ELISA kit (Cell Signaling Technology, 7144) and AKT1 ELISA kit (Cell Signaling Technology, 7142). For the pAKT(T308) ELISA, 85 μL of cell lysate was added to each well. […]
For orientation: ELISA stands for enzyme-linked immunosorbent assay.

Where [1] appears, read: IGF1 stimulation, read-out: pAKT (T308) IC50 MCF-7 PI3Kα E545K IGF1.
[2] abbreviates: Table 7, stimulation line of the head prints PI3Kα, read-out: Cellular pAKT (T308) IC50 PI3KαE545K MCF-7.

Where two headings read alike, the source gives them in different places.

For the compound `Cc1nc2cc(-c3ccc4c(c3)CN(c3nc(CN(C)C)nc(C)c3C(C)C)CCO4)cnc2[nH]1` [Compound 694], the IC50 is 0.135 µM under setting [1] and 0.135 µM under setting [2].

`Cc1nc2ncc(-c3ccc4c(c3)CN(c3nc(CN(C)C)nc5c3CC(C)(C)CC5)CCO4)cc2[nH]1` [Compound 693]: the IC50 is, setting by setting: under setting [1], 0.12 µM; under setting [2], 0.12 µM.

`CCNc1nc2ccc(-c3ccc4c(c3)CN(c3ncnc(NCC)c3C)CCO4)cc2[nH]1` [Compound 699]: the IC50 under setting [1] was 2.4 µM and the IC50 under setting [2] was 2.4 µM.

In the case of `CCNc1nc2ccc(-c3ccc4c(c3)CN(c3ccnc5cc(F)ccc35)CCO4)cc2[nH]1` [Compound 698], the IC50 is 2.24 µM under setting [1] and 2.24 µM under setting [2].

As to `COc1ccc2c(N3CCOc4ccc(-c5cnc6nc(C)[nH]c6c5)cc4C3)nc(CN(C)C)nc2c1` [Compound 696], the IC50 came to 1.65 µM under setting [1] and 1.65 µM under setting [2].

One may read the IC50 as the concentration at which inhibition is half-maximal.
